pIC50: −log10 of the molar value.
How the values were obtained:
Acute toxicity = details: in vivo
[1] = molecular target: T1, catecholamine-O-methyltransferase (COMT), human liver enzyme (Homo sapiens, UniProt P21964); assay: COMT inhibitory activity (O-methylation of 1,2-dihydroxybenzene with S-adenosyl-L-[methyl-3H]methionine, crude human liver enzyme); type: biochemical; details: COMT inhibition; crude enzyme from human liver (8.3 μg protein); pH 8.0; 37° C., 30 minutes; 100 μM 1,2-dihydroxybenzene
T1 construct: prepared from human liver; from tissue; host or cells: human liver, crude enzyme
T1 sequence (P21964 1-221 isoform P21964-2): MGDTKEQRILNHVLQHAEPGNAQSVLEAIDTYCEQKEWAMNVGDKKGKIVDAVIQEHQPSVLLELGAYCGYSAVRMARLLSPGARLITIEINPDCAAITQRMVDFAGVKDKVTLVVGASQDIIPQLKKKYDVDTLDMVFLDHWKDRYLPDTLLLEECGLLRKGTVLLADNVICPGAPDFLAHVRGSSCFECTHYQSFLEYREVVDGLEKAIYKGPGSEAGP
Method: The assay mixture (120 μl) in a mini scintillation vial contained 68 mM K-PO4 buffer (pH 8.0), 10 mM MgCl2, 2.2 mM dithiothreitol, 7.8 U/ml adenosine deaminase, 5 mM EGTA, 100 μM 1,2-dihydroxybenzene, 183 μM S-adenosyl-L-[methyl-^3 H] […] Ci/mol, Amersham) and human liver enzyme. In the standard assay, 5 μl of inhibitor was added to the incubation mixture and the reaction was started with the supplementation of crude enzyme (8.3 μg protein) prepared from human liver. After incubation at 37° C. for 30 minutes, the reaction was stopped by immersion of the vials in ice water. 100 μl of 1M guaiacol HCl was added and the samples were extracted with 2 ml of a scintillation cocktail of hexane/toluene (4:1). The radioactivity of O^3 H-methylated products were measured by a liquid scintillation counter (LSC1100, Aloka).

Solubility = type: physicochemical

| Structure (SMILES) | Acute toxicity (Acute toxicity) | pIC50 [1] | Solubility (Solubility; in Dimethylsulfoxide (DMSO)) | Solubility (Solubility; in H2 O) | Solubility (Solubility; in Methanol) |
| --- | --- | --- | --- | --- | --- |
| COc1c(O)cc2cc(C(=O)O)cc(O)c(=O)c2c1O [8-O-methylpurpurogallincarboxylic acid] | not observed | 5.65 | Soluble | Slightly soluble | Soluble |
| O=c1cccccc1O [Tropolone] |  | 3.02 |  |  |  |
| CCCOC(=O)c1cc(O)c(O)c(O)c1 [Propyl gallate] |  | 6.34 |  |  |  |

— patent US5814512A, “Microorganism having all the identifying characteristics of absida ferm BP-4599 for producing purpurogallin derivatives” (Hoffmann-La Roche Inc., priority 1994, dated 1998)
